Measurements taken from US20060122107A1 (Monash University, priority 2002, published 2006).
“Also recorded” adds a separate entry of the source. Read-outs that look alike come from different tables or passages of the source.

Columns and labels:
[1] = Serum stability assay; assay type: in vitro ADME, mouse; conditions: for remaining at 2 h, 0.091 mg/ml: male
Description: 10 μL of an aqueous peptide solution containing 1 mg/ml peptide was added to 100 μl of 20% mouse serum (From adult male BL6 mice), and incubated at 37° C. for 0 min, 2 hrs and 12 hrs. At each time point samples were taken and serum proteins removed by precipitation through the addition of 40 μl of 15% TCA. Samples were stored at 4° C. for 30 min and centrifuged. Supernatants were then removed and kept on ice. 50 μl of each supernatant was analysed by RP-HPLC using 0.1% TFA in water (eluent A) and 0.09% TFA in 60% aqueous acetonitrile (eluent B) and the following gradient.
The column was a Pharmacia μRPC octadecyl silica column of […] nominal particle size and 300 Å pore size. The flow rate was 200 μl/min and UV detection was used at 214 nm, 254 nm and 280 nm. Values are given as area of peptide peak (214 nm). Peptide amounts at T=0 min were used as 100%. Peptide digests were fractionated and Electrospray ionisation (ESI) Ion Trap Mass spectrometry was used to characterise the fragmentation pattern of SIINFEKL and selected β-amino acid analogues.
Since β-amino acids are resistant to proteolysis, the influence of peptide modification on stability against proteolysis was tested by monitoring the degradation of the peptides in mouse blood serum. Degradation kinetics were followed by reverse phase-HPLC (RP-HPLC) analysis using corresponding peak area for peptide quantification. The parental SIINFEKL peptide was degraded rapidly, with only 5% of the peptide being recovered after 2 hrs. For the βC3-analogues, the amount of degradation was highly dependent on the position of the substitution. Limited stabilisation occurred for peptides with substitutions at P3 and P4 with 8% and 7% recovery respectively (FIG. 11). For the substitution at P1, 10% of the initial peak was recovered. […] For β-Phe at P5 and β-Leu at P8 over 25% of the initial peak was recovered after 2 hrs.

[2] = biological target: H2-K^b complex with Peptide 4 (βC3-Ile at P3) on cells (mouse); test: RMA-S stabilisation assay with 25-D1.16, flow cytometry
[3] = biological target: H2-K^b complex with Peptide 2 (βC3-Ser at P1) on cells (mouse); test: as above
[4] = biological target: MHC Class I H2-K^b on cells (mouse); test: flow cytometry on RMA-S cells, with against without exogenous peptide
[5] = biological target: HLA-A2 (Homo sapiens, UniProt P04439, D140Y/D185E/D98H/E176V/E277Q/G131W/G231S/I119V/I121R/I166T/I218V/L300P/L318F/N151K/N90K/P208A/P217A/Q86G/Q94H/R138H/R169H/T345S); conditions: cited from earlier work
[6] = tested on: CD8^+ T cell response; conditions: mixture of peptides intradermally, patients bearing NY-ESO^+ tumors; cited from earlier work
[7] = 20% mouse serum (From adult male BL6 mice); conditions: 37° C., up to 12 hrs
[8] = tested on: SIINFEKL/K^b-restricted CD8^+ CTL clones; test: T-hybrid CTL recognition assay (IL-2 bioassay), panel of clones; assay type: cell-based, mouse; conditions: 1 μM peptide pulsed on I-3 cells
Text: (§1) The SIINFEKL/K^b-restricted CD8^+ CTL clones B3.1, GA4.2 (Nikolic-Zugic, J., and Carbone F. R. (1990). The effect of mutations in the MHC Class I peptide binding groove on the cytotoxic T lymphocyte recognition of the Kb restricted ovalbumin determinant. Eur. J. Immunol. 20:2431), 149.13.13, 149.42.12 (Clark S. R., Barnden M., Kurts C., Carbone F. R., Miller J. F., Heath J. R. Characterization of the ovalbumin-specific TCR transgenic line OT-I: MHC elements for positive and negative selection. Immunol Cell Biol. April 2000;78(2): 110-7), and the herpes simplex viral specific clone HSV2.3 (Wallace, M. E., Keating, R., Heath, W R., Carbone, F. R. 1999. […]
(§2) CTLL-2 cells were grown to ˜5×10^5 cell per ml then washed 3 times in media containing no exogenous IL-2. […] Once dry, scintillation fluid (Packard Biosciences, Melbourne) was added, then counted on a TopCount scintillation counter (Packard Biosciences, Melbourne).
(§3) CTL clones (expressing different TCR Vβ/Vα segments) restricted by the H2-K^b molecule, and specific to the SIINFEKL peptide were tested for their ability to recognise the various βC3-amino acid substituted analogues (Table X). […] CTTL-2 proliferation is then measured by 3H-Thymydine incorporation and counted on a scintillation counter.

[9] = tested on: CTL clone HSV2.3; test: T-hybrid CTL recognition assay (IL-2 bioassay), control clone HSV2.3; assay type: cell-based, mouse
Text: as §1, §2, §3

[10] = construct that expresses an ER-targeted ESO157-167
[11] = BL6, 20% mouse serum, 37° C., RP-HPLC peak area 214 nm, read-out: peptide recovered after 2 hrs

CC[C@H](C)[C@H](NC(=O)CC(N)CO)C(=O)N[C@H](C(=O)N[C@@H](CC(N)=O)C(=O)N[C@@H](Cc1ccccc1)C(=O)N[C@@H](CCC(=O)O)C(=O)N[C@@H](CCCCN)C(=O)N[C@@H](CC(C)C)C(=O)O)[C@@H](C)CC (stereo partly drawn) [Peptide 2]
remaining at 2 h, 0.091 mg/ml [1, 11]: 10%

monoclonal antibody 25-D1.16
fold increase in peptide concentration to reach the same level of recognition as SIINFEKL [2]: 100 fold
fold increase in peptide concentration to reach the same level of recognition as SIINFEKL [3]: 100 fold

H2-K^b specific monoclonal antibody Y-3
fold increase in surface K^b staining with exogenous peptide [4]: 50 fold

CC[C@H](C)[C@H](NC(=O)[C@@H](NC(=O)[C@@H](N)CO)[C@@H](C)CC)C(=O)N[C@@H](CC(N)=O)C(=O)N[C@@H](Cc1ccccc1)C(=O)N[C@@H](CCC(=O)O)C(=O)N[C@@H](CCCCN)C(=O)N[C@@H](CC(C)C)C(=O)O [Peptide 1, SIINFEKL, reference compound]
remaining at 2 h, 0.091 mg/ml [1, 11]: 5%
serum cleavage sites (MS of fragments) ([1]; mouse serum): S*I*I*NF*E*KL

CC[C@H](C)[C@H](NC(=O)[C@@H](NC(=O)[C@@H](N)CO)[C@@H](C)CC)C(=O)N[C@@H](CC(N)=O)C(=O)N[C@@H](Cc1ccccc1)C(=O)N[C@@H](CCC(=O)O)C(=O)N[C@@H](CCCCN)C(=O)NC(CC(=O)O)CC(C)C (stereo partly drawn) [Peptide 8, SIINFEKβL]
remaining at 2 h, 0.091 mg/ml [1, 11]: > 25%
resistance to proteolytic degradation ([1]; mouse serum, 2 hrs, listed as P8): significant resistance; also recorded: most stable

SLLMWITQC [ESO157-165]
binding to HLA-A2 [5]: poor binding
CD8^+ T cell response after peptide vaccination [6]: later and at a lower level

Ser Ile β^c3Ile Asn Phe Glu Lys Leu
not cleaved [7]: At t=2 hrs most of the full peptide has disappeared

SSIEFARL [peptide recognised by the Herpes Simplex Virus specific control clone HSV2.3]
CTL recognition by the clones [8]: not recognised
recognition by control clone HSV2.3 [9]: mainly mediated

CC[C@H](C)[C@H](NC(=O)[C@@H](NC(=O)[C@@H](N)CO)[C@@H](C)CC)C(=O)NC(CC(N)=O)CC(=O)N[C@@H](Cc1ccccc1)C(=O)N[C@@H](CCC(=O)O)C(=O)N[C@@H](CCCCN)C(=O)N[C@@H](CC(C)C)C(=O)O (stereo partly drawn) [Peptide 5]
remaining at 2 h, 0.091 mg/ml ([1]; BL6, mouse, serum): 7%

CC[C@H](C)[C@H](NC(=O)[C@@H](NC(=O)[C@@H](N)CO)[C@@H](C)CC)C(=O)N[C@@H](CC(N)=O)C(=O)NC(CC(=O)N[C@@H](CCC(=O)O)C(=O)N[C@@H](CCCCN)C(=O)N[C@@H](CC(C)C)C(=O)O)Cc1ccccc1 (stereo partly drawn) [Peptide 6, SIINβFEKL]
full peptide at t=12 hrs [1]: disappeared
serum cleavage sites (MS of fragments) [1]: cleavage did not occur after the P5 amino acid
remaining at 2 h, 0.091 mg/ml ([1]; BL6, mouse, serum): > 25%

CCC(C)C(CC(=O)N[C@H](C(=O)N[C@@H](CC(N)=O)C(=O)N[C@@H](Cc1ccccc1)C(=O)N[C@@H](CCC(=O)O)C(=O)N[C@@H](CCCCN)C(=O)N[C@@H](CC(C)C)C(=O)O)[C@@H](C)CC)NC(=O)[C@@H](N)CO (stereo partly drawn) [Peptide 3]
resistance to proteolytic degradation [1]: significant resistance

SLLMWITQCFL
fragment found [10]: ESO157-165; also recorded: ESO159-167

SIINFEKL
cleaved bond [7]: S-I, 2 hrs; also recorded: I-N, 2 hrs; also recorded: F-E, 2 hrs; also recorded: E-K, 2 hrs

CCC(C)C(CC(=O)N[C@@H](CC(N)=O)C(=O)N[C@@H](Cc1ccccc1)C(=O)N[C@@H](CCC(=O)O)C(=O)N[C@@H](CCCCN)C(=O)N[C@@H](CC(C)C)C(=O)O)NC(=O)[C@@H](NC(=O)[C@@H](N)CO)[C@@H](C)CC (stereo partly drawn) [Peptide 4]
serum cleavage sites (MS of fragments) [1]: no cleavage at the P2-P3 bond
remaining at 2 h, 0.091 mg/ml ([1]; BL6, mouse, serum): 8%

Ser Ile Ile Asn β^c3Phe Glu Lys Leu
not cleaved [7]: At t=12 hrs the full peptide has disappeared leaving only fragments

SLLMWITQCFL [ESO157-167, NY-ESO 157-167 HLA-A*0201-restricted determinant]
CD8^+ T cell response after peptide vaccination [6]: vigorous
